# Reference: patent publication US10709699B2, “Pyridone derivative pharmaceutical composition and preparation method thereof” (Jiangsu Hengrui Medicine Co., Ltd., priority 2016, dated 2020)
# What was measured:
# [1] = Particle size of the raw material by Malvern laser particle size analyzer (Mastersizer 2000); format: physicochemical; conditions: for Particle size d (0.5) of the raw material / Particle size d (0.9) of the raw material: in µm (unit assumed)
# Method: 2-((2-Fluoro-4-iodophenyl)amino)-1-methyl-4-((6-methylpyridin-3-yl)oxy)-6-oxo-1,6-dihydropyridine-3-carboxamide p-toluenesulfonate (hereinafter referred to as compound A) was screened by an 80 mesh sieve, and micronized by a Mcone jet mill (micronizing pressure: 4 bar, sample introduction pressure: 6 bar), respectively. The particle size was measured directly with a Malvern laser particle size analyzer (Mastersizer 2000).
# [2] = Solubility; format: physicochemical; conditions: compound A and its salts
# [3] = raw material micronized by a jet mill (4 bar)
# [4] = raw material screened by an 80 mesh sieve
smiles,measurement,setting,value
"Cc1ccc(Oc2cc(=O)n(C)c(Nc3ccc(I)cc3F)c2C(N)=O)cn1.Cc1ccc(S(=O)(=O)O)cc1 [compound A, 2-((2-fluoro-4-iodophenyl)amino)-1-methyl-4-((6-methylpyridin-3-yl)oxy)-6-oxo-1,6-di hydropyridine-3-carboxamide p-toluenesulfonate]",particle size of the raw material,[1]; raw material micronized by a jet mill,less than 10 μm
same,Particle size d (0.5) of the raw material,[1]; [3],2.587
same,Particle size d (0.9) of the raw material,[1]; [3],5.494
same,Particle size d (0.5) of the raw material,[1]; [4],4.940
same,Particle size d (0.9) of the raw material,[1]; [4],14.148
same,solubility,[2],low
